Read-outs that look alike come from different tables or passages of the source.

The test system of the experiment is chPylRS (chimeric pyrrolysyl-tRNA synthetase). Put plainly: […]-tRNA aminoacylation assay, nuclease P1/TLC. In kind it is biochemical, Methanosarcina mazei; Methanosarcina barkeri. The conditions noted are these: tRNA(Pyl), 10 mM MgCl2, pH 7.2.

Broadly, the Km is the concentration of substrate that gives half-maximal velocity. Consider `Nc1ncnc2c1ncn2[C@@H]1O[C@H](COP(=O)(O)OP(=O)(O)OP(=O)(O)O)[C@@H](O)[C@H]1O` [ATP], for which the Km (read-out: KM ^ATP, BocK as amino acid) worked out at 2.54 ± 0.16 µM.
Turning to `CC(C)(C)OC(=O)NCCCC[C@H](N)C(=O)O` [compound 2, BocK], where the note is “read-out: KM^BocK, ATP”, the Km came out at 1030 ± 50 µM.
